For one compound, IC50 results are on record in PMC13377601, “Discovery of VU6066098: A Selective and CNS-Penetrant mGlu2 NAM with Robust Antidepressant‑, Antipsychotic‑, and Procognitive-like Activity in Rodents” (ACS Chemical Neuroscience, 2026).

For the assay, the target named is T1, human mGlu2 (Homo sapiens, UniProt Q14416).
T1 construct: expressed in transfected cells; host or cells: HEK293 stably co-expressing GIRK channels
The experiment in a line: mGlu2/GIRK thallium flux assay (human). The format is cell-based. To be noted: NAM vs glutamate EC80.

T1 sequence (Q14416 19-872): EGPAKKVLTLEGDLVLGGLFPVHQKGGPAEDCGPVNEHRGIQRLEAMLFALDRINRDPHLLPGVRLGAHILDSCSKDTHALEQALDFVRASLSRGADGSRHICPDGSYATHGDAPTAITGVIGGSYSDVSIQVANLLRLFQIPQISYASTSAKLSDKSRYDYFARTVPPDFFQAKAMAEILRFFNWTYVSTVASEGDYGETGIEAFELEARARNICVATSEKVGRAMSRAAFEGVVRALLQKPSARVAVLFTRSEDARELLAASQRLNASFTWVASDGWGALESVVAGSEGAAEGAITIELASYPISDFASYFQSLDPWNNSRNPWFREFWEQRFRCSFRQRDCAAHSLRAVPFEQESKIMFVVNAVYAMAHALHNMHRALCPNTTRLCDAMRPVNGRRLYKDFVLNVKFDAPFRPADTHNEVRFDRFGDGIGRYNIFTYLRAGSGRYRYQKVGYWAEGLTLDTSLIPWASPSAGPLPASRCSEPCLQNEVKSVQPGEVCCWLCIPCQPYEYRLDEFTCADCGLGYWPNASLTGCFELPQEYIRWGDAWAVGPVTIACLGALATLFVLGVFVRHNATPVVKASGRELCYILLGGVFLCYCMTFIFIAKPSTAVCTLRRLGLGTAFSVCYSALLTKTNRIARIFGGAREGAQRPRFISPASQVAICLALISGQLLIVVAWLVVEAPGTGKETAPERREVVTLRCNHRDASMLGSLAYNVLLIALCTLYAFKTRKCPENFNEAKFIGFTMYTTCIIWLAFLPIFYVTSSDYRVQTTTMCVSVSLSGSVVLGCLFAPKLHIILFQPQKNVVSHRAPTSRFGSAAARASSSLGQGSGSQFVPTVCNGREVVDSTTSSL
Protocol: Molecular Pharmacolgy Methods
Assessment of Cellular Potency of mGlu2 compounds in Thallium Flux Assay Human embryonic kidney 293 (HEK293) cell lines stably co-expressing human or rat mGlu2 and G protein-coupled inwardly rectifying potassium (GIRK) channels were maintained in growth medium containing DMEM/F12 containing 10% FBS, 20 mM HEPES, 1 mM sodium pyruvate, 2 mM L-glutamine, non-essential amino acids mixture, 1X Antibiotic/Antimycotic, 700 μg/mL G418, and 0.6 μg/mL puromycin. […]
Using a microplate washer (BioTek, Winooski, VT), cells were washed with GIRK assay buffer 4 times to remove media. […] The compound, agonist, and cell plates were placed inside the Functional Drug Screening System (FDSS 7000 or µCell kinetic imaging plate reader, Hamamatsu, Japan) to measure the thallium flux using a double add protocol. After establishment of a fluorescence baseline (excitation, 480 nm; emission, 530 nm), 20 µL (2x) of test compound was added to the cells at 2 seconds and the response was measured. 140 seconds later, 10 µL (5x) of an EC80 concentration of glutamate or vehicle in thallium stimulus buffer was added to the cells, and the response of the cells was measured for an additional 158 seconds. […] Fluorescence was measured […]
The average of all baseline slopes (no compound, no glutamate) was determined and this value was subtracted from all other slope values.

A word on the IC50: it is the concentration that gives 50% inhibition. The compound `Cn1ccc(COc2cnc(C(N)=O)cc2-c2ccc(F)cc2)n1` [NAM 5] registered an IC50 of 78 nM. This lies in the double-digit nanomolar range.
